Test results published in patent publication US11147818B2, “Combination therapies” (Infinity Pharmaceuticals, Inc., priority 2016, dated 2021).

Key:
Assay in all cases: Combination study of Compound 1 with selinexor, ATPLite cell growth/viability, 9x9 dose matrix
Type in all cases: cell-based
Settings in all cases: Compound 1 in combination with Selinexor, 72 hours
[1] = tested on: HuT 102 cell line
Protocol: (§1) The synergistic effects of compounds provided herein and another therapeutic agent were carried out. The method is described as follows. Cells were thawed from a liquid nitrogen preserved state. Once cells were expanded and divided at their expected doubling times, screening began. Cells were seeded in growth media in either black 1536-well or 384-well tissue culture treated plates. Cells were then equilibrated in assay plates via centrifugation and placed in incubators attached to the Dosing Modules at 37° C. for 24 hours before treatment. […] These Tzero (To) plates were read using ultra-sensitive luminescence on Envision plate readers (Perkin Elmer). Treated assay plates were incubated with compound for 72 hours. After 72 hours, plates were developed for endpoint analysis using ATPLite. All data points were collected via automated processes, quality controlled and analyzed using Zalicus software. Assay plates were accepted if they passed the following quality control standards: relative luciferase values were consistent throughout the entire experiment, Z-factor scores were greater than 0.6, untreated/vehicle controls behaved consistently on the plate.
(§2) Inhibition (I) is defined as I=(1−T/V)*100% where T is treated cell count and V is untreated (vehicle) cell count (at 72 hours). I ranges from 0% (when T=V) to 100% (when T=0). The IC50 value is defined as the drug concentration needed to inhibit 50% of the cell growth compared to growth of the vehicle treated cells (the drug concentration which gives I=50%). The measure of effect in the experiment can be the inhibition of cellular response relative to the untreated level (vehicle alone). For untreated vehicle and treated levels V and T, a fractional inhibition I=1-T/V is calculated. The inhibition ranges from 0% at the untreated level to 100% when T=0. Inhibition levels are negative for agents that actually increase levels. Other effect measures, such as an activity ratio r=T/V may be more appropriate for some assays. When activity ratios (e.g., fold increase over stimulated control) are being used, the effect can be measured using an induction I=ln(T/V). With this definition, all effect expressions are the same as for inhibition.
(§3) Growth Inhibition (GI) is used as a measure of cell viability. The cell viability of vehicle is measured at the time of dosing (TO) and after 72 hours (T72). A GI reading of 0% represents no growth inhibition—T72 compound-treated and T72 vehicle signals are matched. A GI reading of 100% represents complete growth inhibition—T72 compound-treated and TO vehicle signals are matched. […] A GI reading of 200% represents complete death of all cells in the culture well. Compounds reaching an activity plateau of GI 200% are considered cytotoxic. GI is calculated by applying the following test and equation:
(§4) [formula] [formula] where T is the signal measure for a test article, V is the vehicle-treated control measure, and Vo is the vehicle control measure at time zero. This formula is derived from the Growth Inhibition calculation used in the National Cancer Institute's NCI-60 high-throughput screen.
(§5) Combination analysis data were collected in a 9×9 dose matrix. Synergy was calculated by comparing a combination's response to those of its single compound, against the drug-with-itself dose-additive reference model. Deviations from dose additivity may be assessed visually on an isobologram or numerically with a Combination Index (CI). See the tables below for CI at 50% inhibition and CI at 50% growth inhibition. Additive effect is CI=1.0. Synergistic effect is CI<1. Antagonistic effect is CI>1.0.
(§6) To measure combination effects in excess of Loewe additivity, a scalar measure to characterize the strength of synergistic interaction termed the Synergy Score was devised. […]

[2] = tested on: MJ (G11) cell line
Protocol: as §1, §2, §3, §4, §5, §6

[3] = tested on: HH cell line
Protocol: as §1, §2, §3, §4, §5, §6

[4] = tested on: HuT 78 cell line
Protocol: as §1, §2, §3, §4, §5, §6

[5] = tested on: H9 cell line
Protocol: as §1
as §2, with “The inhibition ranges from 0% at the untreated level to 100% when T=0. Inhibition levels are negative for agents that actually increase levels. Other effect measures, such as an activity ratio r=T/V may be more appropriate for some assays.” left out, “With this definition, all effect expressions are the same as for inhibition.” left out
as §3, with “Compounds reaching an activity plateau of GI 200% are considered cytotoxic.” left out, “equation: […]” for “equation:”
as §5, with “See the tables below for CI at 50% inhibition and CI at 50% growth inhibition. Additive effect is CI=1.0. Synergistic effect is CI<1. Antagonistic effect is CI>1.0.” left out

O=C(/C=C\n1cnc(-c2cc(C(F)(F)F)cc(C(F)(F)F)c2)n1)NNc1cnccn1 [Selinexor, (Z)-3-(3-(3,5-bis(trifluoromethyl)phenyl)-1H-1,2,4-triazol-1-yl)—N′-(pyrazin-2-yl)acrylohydrazide]
CI50 inhibition [1]: A1 (A1=0.0001 to <1)
Synergy Score inhibition [1]: 0.82
CI50 growth inhibition [2]: A3 (A3=>3)
CI50 inhibition [2]: A2 (A2=1 to <3)
Synergy Score growth inhibition [2]: 4.50
Synergy Score inhibition [2]: 1.50
CI50 growth inhibition [3]: A2 (A2=1 to <3)
CI50 inhibition [3]: A2 (A2=1 to <3)
Synergy Score growth inhibition [3]: 1.53
Synergy Score inhibition [3]: 1.25
CI50 growth inhibition [4]: A3 (A3=>3)
CI50 inhibition [4]: A2 (A2=1 to <3)
Synergy Score growth inhibition [4]: 5.85
Synergy Score inhibition [4]: 1.94
CI50 growth inhibition [5]: A3 (A3=>3)
CI50 inhibition [5]: A3 (A3=>3)
Synergy Score growth inhibition [5]: 10.4
Synergy Score inhibition [5]: 3.23
